Measured values taken from patent publication US20250376490A1, “C[…]-DERIVED PEPTIDE-NUCLEIC ACID HYBRID MOLECULE FOR TREATING INFECTION CAUSED BY MUTATED CORONAVIRUS” (priority 2022, published 2025).

Experiments:
SARS-COV-2 RBD = SARS-COV-2 RBD (Severe acute respiratory syndrome coronavirus 2, UniProt P0DTC2); settings: co-incubation with P05DHu and AM 122 antibodies
Method: Specifically, after thermal denaturation and rapid cooling, they were co-incubated with 5 nM RBD beads (final volume: 100 μL) with gentle rotation for 1 hour at room temperature. Beads were washed three times, and resuspended in 100 μL of 1× PBSMT for analysis with CytoFLEX S (Beckman Coulter). The competitive RBD-binding fraction was calculated as the ratio of the competitive mean fluorescence intensity to the uncompetitive (free-binding) mean fluorescence intensity.

pseudotype SARS-COV-2 = format: cell-based
RBD-hACE2 binding = RBD-hACE2 binding (Severe acute respiratory syndrome coronavirus 2, UniProt P0DTC2); settings: 3 μM concentration

| Substance | RBD binding competition between R7-02 and antibodies (SARS-COV-2 RBD) | infection rate with pseudotype SARS-COV-2 (percentage of GFP-expressing infected cells) (pseudotype SARS-COV-2) [%] | neutralizing efficiency compared to other RBD binders (pseudotype SARS-COV-2) | inhibition of RBD-hACE2 interaction (RBD-hACE2 binding) [%] |
| --- | --- | --- | --- | --- |
| R7-02 (LGKGDFRK) | insignificant | 1.9 | significantly higher or comparable |  |
| LGKGDFR [LGKGDFR peptide] |  | 12.6 |  | 11.69 |
